We go through 18 molecules from patent US20240009175A9, “TETRAZOLE DERIVATIVES” (Merck Patent GmbH, priority 2020, published 2024).

One data set deals with ACSS2 (Homo sapiens (Human), UniProt Q9NR19). As to the kind of experiment: Cellular assay of 14C acetate incorporation into fatty acids (IC50 ACSS2 cellular lipids). Particulars: HCT-15 cells. In kind it is cell-based. The method, then: Cellular Assay of ^14C Acetate Incorporation into Fatty Acids (IC50 ACSS2 Cellular Lipids)
This protocol describes a cellular assay capable to quantify endogenous fatty acid synthesis activity in the human HCT-15 cancer cell line following the incorporation of extracellularly administered radiolabeled ^14C acetate with a scintillation proximity based read out on extracted fatty acids.
HCT-15 cells were grown in RPMI 1640 (Gibco) supplemented with 2 mM glutamine, 1 mM sodium pyruvate 10 mM HEPES and 10% FCS (heat-inactivated) passaged every 2-3 days to remain a subconfluent, vital culture. A working cell bank was prepared with each aliquot containing 1×10^7 viable cells. After thawing, these cells are dilute immediately 1:20 in pre-warmed (37° C.) culture medium. Cells are collected by centrifugation at 200×g for 5 min, and the supernatant is replaced by 30 mL of fresh culture medium per aliquot to obtain a cell suspension containing 350000 cells/ml. From this cell suspension 100 μL are dispersed into each well of a collagen coated 96 well plate, (black, clear bottom, PS, F-bottom, Greiner) and culture for 24 h (37° C., 5% CO2). After incubation the culture medium is removed and the wells are washed once with 100 μL PBS++(supplemented with Mg^2+/Ca^2+, Gibco) and 50 μL assay medium (RPMI 1640+10 mM HEPES) are added to each well. Compounds serial dilutions are prepared from 10 mM stock solutions in DMSO using a fixed dilution factor (usually 1:3). After preparation of the dilution series in DMSO, the individual dilutions are further diluted in the assay medium. This working dilution is prepared such, that the concentration is 7× of the final concentration in the assay. The maximal DMSO concentration in the final assay is 0.1%.
To each well 10 μL compound working dilution or DMSO blank are added and the cells are cultured for 2 h (37° C., 5% CO2). Then 10 μL AlamarBlue reagent (Invitrogen) containing 14 μCi/mL 14C-acetate (Perkin Elmer) are added to each well (70 μl total volume) and cells are again cultured for 2 h. Cell viability is verified by measuring the AlamarBlue fluorescence (Tecan Safire, ex: 544 nm/em: 590 nm). After incubation the culture medium is removed and the wells are carefully washed once with cold 100 μL PBS++. For cell lysis and fatty acid recovery 50 μl 0.1 M NaOH and 0.1% Triton-X100 are added per well. The plate is sealed with PlateLoc (clear peelable heat seal, Agilent) and incubate at 70° C. for 16-24 h. After cooling to room temperature, the plates are centrifuged for 1 min at 1000 rpm and the plate seals are removed. For acidification 150 μL 0.1 M HCl are added to each well, mixed and 150 μL of the mixture are transferred into a 96 well FlashPlate (Perkin Elmer). The plates are sealed with TopSeal-A (Perkin Elmer). To allow for the fatty acid binding to the well surfaces the plates are incubate for 4 h at 70° C. After cooling to room temperature, the plates are centrifuged for 1 min at 1000 rpm and stored for 0.5-2h at room temperature in the dark. Radioactivity from ^14C incorporation into fatty acids in the wells is measured as CPM count in a MicroBeta scintillation counter (Perkin Elmer).

A further data set deals with CYP3A4. As to the kind of experiment: CYP-induction assay in HepaRG cells, QuantiGene Plex 2.0 (CYP3A4 induction). In kind it is in vitro ADME, human. Particulars: 48 hrs; for CYP3A4 (in parentheses: lowest concentration causing at least 2-fold induction): value in parentheses; for CYP3A4 (significant induction above 20% threshold): value outside parentheses. From the text: CYP-Induction Assay in HepaRG Cells with the QuantiGene Plex 2.0 Reagent System (Branched DNA-Assay) from Affymetrix (Thermo Scientific) (CYP3A4 Induction)
The QuantiGene Plex 2.0 assay combines branched DNA (bDNA) signal amplification and multi-analyte profiling beads (xMAP®) technologies to enable the detection and quantitation of multiple RNA targets simultaneously. The xMAP system combines a flow cytometer, fluorescent-dyed microspheres (beads), lasers and digital signal processing to allow multiplexing of up to 100 unique assays within a single sample.
Human HepaRG cells (Thermo Scientific) were thawed and seeded with a density of 0.72E6 cells/ml in a collagen precoated 96-well plate. After an adaption phase of 3 days in first Williams E medium (Gibco+thawing supplement, Thermo Scientific) the medium was changed to second Williams E medium (Gibco+tox supplement, Thermo Scientific). Daily treatment with test substances at 4 concentrations, started between day 3-10 of culturing, was performed with an incubation time of 48 hrs. After 48 hrs the cells were lysed with 100 μl/well (Lysis mixture, Affymetrix diluted 1:2 with Williams E medium, Gibco and addition of 5 μl proteinase K/ml of the mixture, Affymetrix). The QuantiGene Plex 2.0 assay utilizes fluorescent capture beads to trap specific RNA molecules. In order to hybridize and span contiguous sequences of the target RNA, the probe set containing 3 types of synthetic probes (Capture Extenders, Label Extenders, and Blockers) was incubated with samples and beads at 600 rpm at 54° C. for 16-20 h. Signal amplification was mediated by DNA amplification molecules that hybridize to the tails of the label extenders (incubation of the over-night hybridized beads with pre-amplifier and amplifier reagent for 1 h at 50° C. each, washing steps in between). Each amplification unit contains multiple hybridization sites for biotinylated label probes (incubation with label probe reagent for 1 h at 50° C., washing step in between) that bind Streptavidin-conjugated R-Phycoerythrin (SAPE, last incubation step for 30 min at room temp.). After the SAPE incubation, a last washing step with SAPE buffer was performed (120 μl left in wells). The resulting fluorescence signal associated with individual capture beads was detected on a Luminex 200 flow cytometer (parameters: volume 100 μl, timeout 45 sec., DD-gate 5,000-25,000, bead events 50). Signals were reported as median fluorescence intensity (MFI) and were proportional to the number of target RNA molecules present in the sample.
For analysis of results, calculation of mean values of 3 technical replicates as well as the standard deviations (% SD up to 30% acceptable) were carried out. The mean value of the blank was subtracted from the mean value of the sample. As the genes HPRT1 and TFRC are housekeeping genes, they are used to normalize sample mean values [(Sample Mean−Blank)/Housekeeper (Mean−Blank)=normalized value (HPRT1 or TFRC)]. Calculation of the fold-change was performed by dividing normalized sample values by the normalized mean values of the DMSO controls [(Sample Mean−Blank)/Housekeeper (Mean−Blank)=fc; (DMSO Mean−Blank)/Housekeeper (Mean−Blank)].
Experimental data of the compounds shown in Table 1 in the CYP3A4 assay are shown in Table 2 below and given in μM (significant induction above 20% threshold; in parentheses: lowest concentration causing at least 2-fold induction): […]

Structures are written as SMILES.

ACSS2, sequence (Q9NR19 whole entry): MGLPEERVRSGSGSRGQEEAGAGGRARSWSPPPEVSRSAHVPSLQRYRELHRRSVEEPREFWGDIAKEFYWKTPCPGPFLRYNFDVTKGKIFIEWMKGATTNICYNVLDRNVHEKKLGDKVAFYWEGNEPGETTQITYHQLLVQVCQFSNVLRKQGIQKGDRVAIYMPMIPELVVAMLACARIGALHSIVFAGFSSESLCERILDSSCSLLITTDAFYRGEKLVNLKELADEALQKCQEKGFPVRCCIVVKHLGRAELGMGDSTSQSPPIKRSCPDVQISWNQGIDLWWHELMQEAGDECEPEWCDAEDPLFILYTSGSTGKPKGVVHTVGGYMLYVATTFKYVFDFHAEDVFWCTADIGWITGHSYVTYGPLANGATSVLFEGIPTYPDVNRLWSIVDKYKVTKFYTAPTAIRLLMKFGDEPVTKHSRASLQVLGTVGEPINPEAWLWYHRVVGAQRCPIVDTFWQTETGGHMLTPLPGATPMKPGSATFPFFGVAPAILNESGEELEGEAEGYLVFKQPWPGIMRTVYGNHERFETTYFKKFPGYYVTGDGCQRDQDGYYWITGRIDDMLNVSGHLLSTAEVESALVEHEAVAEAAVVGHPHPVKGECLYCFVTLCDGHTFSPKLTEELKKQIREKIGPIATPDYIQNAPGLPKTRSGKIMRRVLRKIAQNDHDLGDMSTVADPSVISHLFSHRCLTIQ

For the molecule `CCn1c(C(O)(c2ccccc2F)c2ccccc2F)nc2nc(OC)c(-c3nnn[nH]3)cc21` [Compound 57, [1-ethyl-5-methoxy-6-(1H-1,2,3,4-tetrazol-5-yl)-1H-imidazo[4,5-b]pyridin-2-yl]bis(2-fluorophenyl)methanol], the 50% inhibitory concentration (IC50) (usually the concentration that gives 50% inhibition) at ACSS2 was in the range of 0.01 to 1 nM.
The same measure, in the same setting: the figure for `CCc1c(C(O)(c2ccccc2)c2ccccc2)nc2cc(F)c(-c3nnn[nH]3)cn12` [Compound 3, [3-Ethyl-7-fluoro-6-(1H-tetrazol-5-yl)-imidazo[1,2-a]pyridin-2-yl]-diphenyl-methanol] is 10 to 100 nM.
As to `CCn1c(C(O)(c2ccccc2)c2ccccc2)nc2nc(Cl)c(-c3nnn[nH]3)cc21` [Compound 51, [5-chloro-1-ethyl-6-(1H-1,2,3,4-tetrazol-5-yl)-1H-imidazo[4,5-b]pyridin-2-yl]diphenylmethanol], in the data set on CYP3A4, the “CYP3A4 (in parentheses: lowest concentration causing at least 2-fold induction)” value turned out to be 50 µM and the “CYP3A4 (significant induction above 20% threshold)” value came to 3.1 µM. The IC50 on ACSS2 fell in the range of 10 to 100 nM.
On to `CCc1c(C(O)(c2ccccc2)c2ccccc2)nn2cc(OC)c(-c3nnn[nH]3)cc12` [Compound 22, [3-Ethyl-6-methoxy-5-(1H-tetrazol-5-yl)-pyrazolo[1,5-a]pyridin-2-yl]-diphenyl-methanol], for which the IC50 on ACSS2 lay within 1 to 10 nM.
The same measure, in the same setting: in the case of `CCn1c(C(O)(c2ccccc2)c2ccccc2)nc2nc(C)c(-c3nnn[nH]3)cc21` [Compound 62, [1-ethyl-5-methyl-6-(1H-1,2,3,4-tetrazol-5-yl)-1H-imidazo[4,5-b]pyridin-2-yl]diphenylmethanol] it was 100 to 10000 nM; in that of `CCc1c(C(O)(c2ccccc2F)c2ccccc2F)nn2cc(OC)c(-c3nnn[nH]3)cc12` [Compound 19, [3-Ethyl-6-methoxy-5-(1H-tetrazol-5-yl)-pyrazolo[1,5-a]pyridin-2-yl]-bis-(2-fluoro-phenyl)-methanol], 1 to 10 nM; in that of `CCn1c(C(O)(c2ccccc2)c2cccs2)nc2nc(OC)c(-c3nnn[nH]3)cc21` (racemic) [Compound 35, [1-ethyl-5-methoxy-6-(1H-1,2,3,4-tetrazol-5-yl)-1H-imidazo[4,5-b]pyridin-2-yl](phenyl)(thiophen-2-yl)methanol], 0.01 to 1 nM.
Take `COc1nc2nc(C(O)(c3ccccc3)c3ccccc3)n(CCO)c2cc1-c1nnn[nH]1` [Compound 34, 2-[2-(hydroxy-diphenylmethyl)-5-methoxy-6-(1H-1,2,3,4-tetrazol-5-yl)-1H-imidazo[4,5-b]pyridin-1-yl]ethan-1-ol]: the IC50 on ACSS2 fell in the range of 10 to 100 nM.
`CCc1c(C(O)(c2ccccc2)c2ccccn2)nc2cc(OC)c(-c3nnn[nH]3)cn12` (single isomer, unassigned) [Compound 11, [3-Ethyl-7-methoxy-6-(1H-tetrazol-5-yl)-imidazo[1,2-a]pyridin-2-yl]-phenyl-pyridin-2-yl-methanol]: the IC50 against ACSS2 is 1 to 10 nM.
`CCn1c(C(O)(c2ccccc2)c2ccccc2)nc2ncc(-c3nnn[nH]3)cc21` [Compound 60, [1-ethyl-6-(1H-1,2,3,4-tetrazol-5-yl)-1H-imidazo[4,5-b]pyridin-2-yl]diphenylmethanol]: the 50% inhibitory concentration (IC50) against ACSS2 is 100 to 10000 nM.
Take `CCc1c(C(O)(c2ccccc2)c2ccccc2)nc2cc(OC)c(-c3nnn[nH]3)cn12` [Compound 2, [3-Ethyl-7-methoxy-6-(1H-tetrazol-5-yl)-imidazo[1,2-a]pyridin-2-yl]-diphenyl-methanol]: in the data set on CYP3A4, the “CYP3A4 (in parentheses: lowest concentration causing at least 2-fold induction)” value stood at 5 µM and the “CYP3A4 (significant induction above 20% threshold)” value was determined as 2.3 µM. The IC50 against ACSS2 lay within 1 to 10 nM.
Turning to `CCn1c(C(O)(c2ccccc2)c2ccccn2)nc2nc(OC)c(-c3nnn[nH]3)cc21` (single isomer, unassigned) [Compound 40, [1-ethyl-5-methoxy-6-(1H-1,2,3,4-tetrazol-5-yl)-1H-imidazo[4,5-b]pyridin-2-yl](phenyl)(pyridin-2-yl)methanol], in the data set with CYP3A4, the “CYP3A4 (in parentheses: lowest concentration causing at least 2-fold induction)” value was found to be 5 µM and the “CYP3A4 (significant induction above 20% threshold)” value was 6.8 µM. The molecule also displayed an IC50 on ACSS2 of 1 to 10 nM.
For `CCn1c(C(O)(c2ccccc2)c2ccccn2)nc2nc(OC)c(-c3nnn[nH]3)cc21` (racemic) [Compound 50, [1-ethyl-5-methoxy-6-(1H-1,2,3,4-tetrazol-5-yl)-1H-imidazo[4,5-b]pyridin-2-yl](phenyl)(pyridin-2-yl)methanol], at ACSS2, the IC50 was in the range of 0.01 to 1 nM.
The molecule `CCn1c(C(O)(c2ccccc2)c2ncccn2)nc2nc(OC)c(-c3nnn[nH]3)cc21` (racemic) [Compound 37, [1-ethyl-5-methoxy-6-(1H-1,2,3,4-tetrazol-5-yl)-1H-imidazo[4,5-b]pyridin-2-yl](phenyl)(pyrimidin-2-yl)methanol] came in with an IC50 at ACSS2 of 1 to 10 nM.
The same measure, in the same setting: in the case of `CCc1c(C(O)(c2ccccc2)c2ccccc2)nc2cc(Cl)c(-c3nnn[nH]3)cn12` [Compound 9, [7-Chloro-3-ethyl-6-(1H-tetrazol-5-yl)-imidazo[1,2-a]pyridin-2-yl]-diphenyl-methanol] it was 1 to 10 nM.
Still for that read-out and setting: the figure for `CCc1c(C(O)(c2ccccc2F)c2ccccc2F)nc2cc(Cl)c(-c3nnn[nH]3)cn12` [Compound 5, [7-Chloro-3-ethyl-6-(1H-tetrazol-5-yl)-imidazo[1,2-a]pyridin-2-yl]-bis-(2-fluoro-phenyl)-methanol] is 10 to 100 nM; for `CCc1c(C(O)(c2ccccc2F)c2ccccc2F)nc2cc(OC)c(-c3nnn[nH]3)cn12` [Compound 6, [3-Ethyl-7-methoxy-6-(1H-tetrazol-5-yl)-imidazo[1,2-a]pyridin-2-yl]-bis-(2-fluoro-phenyl)-methanol] it is 1 to 10 nM; for `CCn1c(C(O)(c2cccs2)c2cccs2)nc2nc(OC)c(-c3nnn[nH]3)cc21` [Compound 38, [1-ethyl-5-methoxy-6-(1H-1,2,3,4-tetrazol-5-yl)-1H-imidazo[4,5-b]pyridin-2-yl]bis(thiophen-2-yl)methanol] it is 10 to 100 nM.
